The record followed here is BindingDB's records for PubMed 31865013 (n/a, 2020).

One may read the IC50 as the concentration that gives 50% inhibition. High values mean lower potency, low ones higher potency.

This assay concerns the target T1, Histone deacetylase 6 (Homo sapiens, UniProt Q9UBN7).
T1 sequence (Q9UBN7 whole entry): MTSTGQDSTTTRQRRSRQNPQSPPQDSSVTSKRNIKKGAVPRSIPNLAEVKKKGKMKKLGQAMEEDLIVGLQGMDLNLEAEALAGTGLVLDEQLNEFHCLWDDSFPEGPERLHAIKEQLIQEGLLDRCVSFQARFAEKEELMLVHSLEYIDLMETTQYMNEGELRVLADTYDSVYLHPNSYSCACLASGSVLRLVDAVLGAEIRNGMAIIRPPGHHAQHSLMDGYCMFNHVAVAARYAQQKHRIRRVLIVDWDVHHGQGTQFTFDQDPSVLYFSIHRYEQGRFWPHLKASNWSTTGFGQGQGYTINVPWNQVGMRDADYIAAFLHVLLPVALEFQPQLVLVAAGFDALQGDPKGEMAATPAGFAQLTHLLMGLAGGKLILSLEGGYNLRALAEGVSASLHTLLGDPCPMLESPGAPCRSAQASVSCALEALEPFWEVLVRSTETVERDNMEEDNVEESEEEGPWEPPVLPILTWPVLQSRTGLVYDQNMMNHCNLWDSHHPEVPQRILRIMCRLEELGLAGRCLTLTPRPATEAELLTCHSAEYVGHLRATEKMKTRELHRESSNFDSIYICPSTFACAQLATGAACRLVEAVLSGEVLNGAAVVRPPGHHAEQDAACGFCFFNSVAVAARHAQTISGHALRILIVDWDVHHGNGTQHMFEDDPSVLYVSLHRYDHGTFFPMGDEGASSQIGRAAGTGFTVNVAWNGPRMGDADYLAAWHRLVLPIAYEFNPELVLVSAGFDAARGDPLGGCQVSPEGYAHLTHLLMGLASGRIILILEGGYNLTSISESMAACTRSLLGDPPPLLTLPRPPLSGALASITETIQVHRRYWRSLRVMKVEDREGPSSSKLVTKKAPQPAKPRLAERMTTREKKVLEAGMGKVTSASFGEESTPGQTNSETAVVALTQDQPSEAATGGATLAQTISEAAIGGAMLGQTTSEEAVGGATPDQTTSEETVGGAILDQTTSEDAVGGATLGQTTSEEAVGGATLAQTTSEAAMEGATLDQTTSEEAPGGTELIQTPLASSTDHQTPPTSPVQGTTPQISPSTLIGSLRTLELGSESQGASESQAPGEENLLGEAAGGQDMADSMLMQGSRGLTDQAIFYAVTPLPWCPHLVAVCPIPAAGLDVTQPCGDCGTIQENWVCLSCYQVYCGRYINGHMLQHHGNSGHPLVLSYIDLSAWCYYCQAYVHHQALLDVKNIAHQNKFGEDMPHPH
The assay can be described thus: Inhibition of HDAC6 (unknown origin) using Fluor de lys as substrate by fluorescence based analysis.
Regarding `COCCOc1cc(Cc2cnc(N)nc2N)cc2c1NCCC2`, the concentration for half-maximal inhibition (IC50) was found to be 16 nM. This counts as double-digit nanomolar.
Then `Nc1ncc(Cc2ccc3c(c2)CCCN3)c(N)n1`, with 17 nM; and `CCCCCCCCCCCCOc1c(CC)cc(Cc2cnc(N)nc2N)cc1CC`, with 11 nM; and `CCc1cc(Cc2cnc(N)nc2N)cc(CC)c1N`, with 18 nM.
